Laboratory results as given in patent US20240109877A1, “PYRIMIDINES FOR DEGRADING BRUTON'S TYROSINE KINASE” (AbbVie Inc., priority 2022, published 2024).

Key:
[1] = molecular target: BTK protein in human whole blood (Homo sapiens (Human), UniProt Q06187); assay: Btk protein in human whole blood MSD ELISA based assay (Btk degradation); type: cell-based; conditions: human whole blood from healthy donors, 6 hours at 37° C., half maximal degradation concentration; read-out: hWB BTK DC50
Method: Btk protein degradation was tested using an Meso Scale Discovery-ELISA system (MSD-ELISA): (1) Test compounds were added to human whole blood; (2) human whole blood cells treated with test compounds were lysed; (3) lysed cells were treated with capture antibody, an antibody to Btk; (4) lysed cells were treated with […] to Btk; and (5) lysed cells were treated with anti-mouse antibody (tagged).
Specifically, about 80 μl of fresh human whole blood from healthy donors was transferred into each well of a 96-well V-bottom plate (Costar, Cat No.3894). Using a TECANTM D300e Digital Dispenser (Tecan)), 1:4 serially diluted compounds [(8 pt assay) in DMSO solution (final 0.2%) starting at 3 μM top concentration], were added in duplicate. Thereafter, plates were placed in a 37° C. incubator and incubated for 6 hours.
At the end of incubation, 80 μl of 2× CST lysis buffer (Cell Signaling Technology, Cat No. 9803), prepared from a 10× stock solution, was added per well to lyse the blood. Plates were then sealed with a plate sealer and the samples were frozen overnight at −80° C.
Total amount of BTK protein remaining in the blood samples after compound treatment was measured using MSD-ELISA. After thawing the frozen plates, blood lysates were mixed thoroughly and transferred to small spot high-bind MSD plates (Meso Scale Discovery, Cat No. L45XB-3) and coated with capturing antibody, rabbit anti-human BTK (D3H5) (Cell Signaling Technology, Cat No. 8547CF). Thereafter, primary detection antibody, mouse anti-human BTK monoclonal antibody, (BD Biosciences, Cat No. 611117) and secondary detection antibody, anti-mouse SULFO-TAG (Meso Scale Discovery, Cat No. R32AC-1) were added. The assay plates were read on an MSD S600 plate reader by the addition of 2× MSD read buffer (Meso Scale Discovery, R92TC-1). All reagent transfers, including blood lysis, was conducted using a Biomed i7 liquid handler. From the dose response curves, DC50 values were calculated by averaging data from duplicate experiments. and Curve fitting was done by non-linear regression using GraphPad Prism. The DC50 values are reported in Table 2 in the hWB BTK DC50 (nM) column The Dmax values represent the maximum amount of BTK degradation observed upon compound treatment compared to DMSO only treated samples. The dMax (%) values are reported in Table 2 in the hWB BTK dMax (%) column.

BTK in mouse bone marrow = BTK in mouse bone marrow (Mus musculus (Mouse), UniProt P35991); assay: Mouse Bone Marrow Assay (MSD ELISA of BTK degradation in mouse bone marrow); type: in vivo; conditions: female C57BL/6J mice, single dose of Dose A, bone marrow collected after 24 hours, % remaining BTK in vehicle versus treated samples
BTK in mouse bone marrow, sequence (P35991 whole entry): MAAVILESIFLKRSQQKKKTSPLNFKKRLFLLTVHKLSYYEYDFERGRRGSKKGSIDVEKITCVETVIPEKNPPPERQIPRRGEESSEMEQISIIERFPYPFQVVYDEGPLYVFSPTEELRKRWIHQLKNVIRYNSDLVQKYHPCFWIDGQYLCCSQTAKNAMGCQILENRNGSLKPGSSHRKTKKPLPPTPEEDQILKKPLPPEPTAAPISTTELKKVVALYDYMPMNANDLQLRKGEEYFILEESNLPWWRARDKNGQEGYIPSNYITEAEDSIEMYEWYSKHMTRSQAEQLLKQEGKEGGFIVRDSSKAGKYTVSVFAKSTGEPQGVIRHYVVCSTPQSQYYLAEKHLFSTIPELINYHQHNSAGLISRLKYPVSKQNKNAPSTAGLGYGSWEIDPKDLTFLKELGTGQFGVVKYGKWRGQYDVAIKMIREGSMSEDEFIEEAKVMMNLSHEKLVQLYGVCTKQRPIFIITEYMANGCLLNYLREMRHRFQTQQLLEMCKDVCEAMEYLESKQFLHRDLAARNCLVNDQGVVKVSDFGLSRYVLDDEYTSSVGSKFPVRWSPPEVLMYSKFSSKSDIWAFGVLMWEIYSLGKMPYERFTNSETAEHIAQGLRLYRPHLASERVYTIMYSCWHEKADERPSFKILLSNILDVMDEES
Method: Female C57BL/6J mice (Jackson Laboratories) were used for this study. Compounds or vehicle/control were prepped with EtOH; PEG-400; Phosal 53 MCT (10:30:60, v/v). Four mice were tested per compound or vehicle/control. On Day 1, mice were administered a single dose of Dose A. On Day 2 (after 24 hours), tissue (bone marrow) was collected from one hind leg per mouse.
An MSD (Meso Scale Discovery) ELISA (enzyme-linked immunosorbent assay) based assay was used to determine BTK degradation in mouse bone marrow. The following materials and equipment were used: 10% NP40 solution (nonionic polyoxyethylene surfactant, ThermoFisher, cat no. 28324); protease inhibitor mini tablet (Roche, cat no. 05 892 970 001); PhosphoSTOP™ tablet (Roche, cat no. 04 906 837 001); Pierce™ BCA Protein Assay Kit (Thermofisher, Cat No. 23225); Precellys® 2 mL lysing tube with 2.8 mm beads (VWR, cat no. 10032-756); Bertin Precellys® 24/Cryolys ® cooling system; 96-well MSD streptavidin pre-coated plates (MSD, cat no. L15SA-1); MSD Blocker A (MSD, cat no. R93BA-4); capture antibody, biotinylated BTK mAb (BD Biosciences, cat no. 624008; custom order); primary detection antibody, BTK RpAb (rabbit polyclonal antibody, CST, cat no. 8547S, D3H5 clone); secondary detection antibody, anti-Rabbit-Sulfo-Tag (MSD, cat no. R32AB-1); read Buffer, 4× (MSD, cat no. R92TC-1); recombinant BTK protein (Thermofisher, cat no. PR5442A); MSD Tris Wash Buffer (10×) (MSD, cat no. R61TX-1); PBS (phosphate-buffered saline); deionized water (diH2O); Lysis Buffer [0.2% NP40 in PBS+Protease Inhibitor tablet (1 tablet/10 mL)+PhosphoSTOP tablet (1 tablet/10 mL)]; 3% MSD Blocker A [MSD Blocker A+450 mL diH2O+50 mL]; and 10× MSD Tris Wash Buffer.
Lysis buffer [(PBS+0.2% NP40+PI (protease inhibitor)+PhosphoSTOP)]was prepared and put on ice until it was fully cold. Ice cold lysis buffer […] was added to each Precellys® tube containing beads and bone marrow sample. Sample tubes were transferred into Precellys® machine and homogenized using 5000 rpm -2×20 seconds. The sample lysates were centrifuged at 14,000 rpm for 20 minutes at 4° C. after homogenizing.
The protein concentration was determined using Pierce™ BCA Protein Assay Kit following manufacturer's recommended protocol. The protein normalized working solution was prepared, using 30 μg protein per sample lysate for assay.
A 300 ng/ml working stock solution of recombinant BTK protein in lysis buffer was prepared, and the sample was serially diluted at 3-fold dilution (10-point assay, highest concentration was 300 ng/mL and lowest concentration was 0.015 ng/mL)
MSD plate coating: Coating antibody (biotinylated-BTK mAb) stock solution was prepared at 1 μg/mL in PBS buffer. 50 μL/well capture antibody (Biotinylated BTK mAb) solution was added, and the plates were shaken gently at ambient temperature for two hours. The plates were washed 3 times with 1× MSD Tris Wash Buffer in a plate washer (300 μL/well), and the plates were blocked with 3% MSD Blocker A (150 μL/well). The plates were incubated for an additional 1-2 hours at ambient temperature with gentle shaking. The plates were washed 3 times with 1× MSD wash buffer using plate washer. Bone marrow lysates (30 μg) at a final volume of 50 μL/well were added into the plates. The serially diluted standard samples were added to the same plates at a final volume of 50 μL/well. The plates were incubated overnight at 4° C. with gentle shaking.
The plates were washed three times with 1× MSD wash buffer (prepared from 10× concentration buffer) using plate washer. Primary detection antibody at 50 μL/well was added (BTK RpAb; 1:1000 dilution in 1% MSD Blocker A). The plates were incubated for two hours at ambient temperature with gentle shaking. The plates were washed three times with 1× MSD wash buffer using plate washer. Anti-Rabbit-SULFO-TAG secondary antibodies (50 μl/well) were added, 1:500 diluted in 1% MSD Blocker A, and the plates were incubated for one to two hours at ambient temperature. […]

BTK protein in human whole blood, sequence (Q06187 whole entry): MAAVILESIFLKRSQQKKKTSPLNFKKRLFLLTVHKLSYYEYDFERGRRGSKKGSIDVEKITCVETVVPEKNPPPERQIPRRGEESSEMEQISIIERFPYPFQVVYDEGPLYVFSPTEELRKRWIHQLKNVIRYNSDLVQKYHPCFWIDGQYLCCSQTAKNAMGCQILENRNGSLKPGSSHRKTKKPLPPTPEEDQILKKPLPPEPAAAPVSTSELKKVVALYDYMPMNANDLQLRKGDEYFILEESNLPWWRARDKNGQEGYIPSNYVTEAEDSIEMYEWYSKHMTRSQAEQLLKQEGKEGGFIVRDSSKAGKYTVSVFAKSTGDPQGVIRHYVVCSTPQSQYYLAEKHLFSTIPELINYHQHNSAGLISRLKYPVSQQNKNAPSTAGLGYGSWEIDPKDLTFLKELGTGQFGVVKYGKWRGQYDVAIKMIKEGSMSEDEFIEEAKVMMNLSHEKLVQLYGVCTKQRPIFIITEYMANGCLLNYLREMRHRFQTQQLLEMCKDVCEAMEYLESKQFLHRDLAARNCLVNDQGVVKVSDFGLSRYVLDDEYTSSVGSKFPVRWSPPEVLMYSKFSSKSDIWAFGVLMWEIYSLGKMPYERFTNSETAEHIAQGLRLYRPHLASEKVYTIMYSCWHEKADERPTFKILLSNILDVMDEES

SMILES	DC50 [1] [nM]	Mouse Bone Marrow (%), % remaining BTK (BTK in mouse bone marrow) [%]
Cc1c([C@@H](C)NC(=O)c2nc(C(C)(C)C)no2)ccc(-c2cc(Nc3ccc(N4CCN(CCc5ccc(N6CCC(=O)NC6=O)cc5)C[C@@H]4C)cn3)ncn2)c1F [Example 10, 3-tert-butyl-N-[(1R)-1-{4-[6-({5-[(2S)-4-{2-[4-(2,4-dioxo-1,3-diazinan-1-yl)phenyl]ethyl}-2-methylpiperazin-1-yl]pyridin-2-yl}amino)pyrimidin-4-yl]-3-fluoro-2-methylphenyl}ethyl]-1,2,4-oxadiazole-5-carboxamide]	3.04	9
Cc1c([C@@H](C)NC(=O)c2nc(C(C)(C)C)no2)ccc(-c2cc(Nc3ccc(N4CCN(CCc5ccc(N6CCC(=O)NC6=O)cc5)CC4)cn3)ncn2)c1F [Example 11, 3-tert-butyl-N-{(1R)-1-[4-(6-{[5-(4-{2-[4-(2,4-dioxo-1,3-diazinan-1-yl)phenyl]ethyl}piperazin-1-yl)pyridin-2-yl]amino}pyrimidin-4-yl)-3-fluoro-2-methylphenyl]ethyl}-1,2,4-oxadiazole-5-carboxamide]	4.31	29
